Measurements: patent publication US20260217701A1, “SELECTIVE BET INHIBITORS AND USES THEREOF” (Tay Therapeutics Limited, priority 2022, published 2026)

Experiments:
[1] = Bleomycin IPF model: body weight and mortality; format: in vivo, C57BI/6J mice; parameters: Mean Body Weight Change: unit not given here
Description: Male C57BI/6J mice, aged 12 weeks with an approximate weight of 25-30 g were obtained from Jackson Laboratories (Bar Harbor, ME). Animals were acclimated for two weeks prior to study initiation, and were randomized into the experimental groups outlined in Table 32.
Intratracheal (IT) administration of Bleo or PBS control was conducted at the start of the study (Day 0). […] Animals were weighed on Day 0, and indexed boluses of PBS control (Group 1) or Bleo (Groups 2-6) were delivered by IT administration.
Following administration of Bleo, animals (n=10/group) were included in the study if they met the following guidelines on Day 7: (1) a predictable 5% loss in body weight, and (2) the presence of fibrotic pulmonary lesions, detected by micro-CT imaging. 10 animals from Group 1 additionally proceeded as controls. Animals that continued in the study on Day 7 received an oral gavage (OG) administration of PBS, Compound A (1 mg/kg, 3 mg/kg, 10 mg/kg), or Pirfenidone (300 mg/kg), as outlined in Table 31 in 25 μL boluses every other day (QOD), starting on Day 7. Compound A was formulated in 5% (v/v) DMSO/15% (v/v) PEG 400/80% (v/v) E-TPGS in purified water. […]

anti-dsDNA antibodies = experiment: SLE (lupus) model: anti-dsDNA antibodies in serum by ELISA; format: in vivo, MRL/MpJ-Faslpr mice
Description: Female MRL/MpJ-Faslpr mice (The Jackson Laboratory) were used to assess the efficacy of Compound A in treating lupus. Starting when animals were 10 weeks of age, protein concentration in urine was measured using urine dipsticks.
At the start of the study, each group in the study had two animals that were 9 weeks old, and all others were 10 weeks old. Dosing of all animals with the test compounds began when the older animals were 11 weeks old. […] […] Dosing was at a consistent time each dosing day throughout the study.
Compound A may be formulated as illustrated in Experimental Method A (see Table 2E.). […] A stock solution of Compound A in DMSO (stock solution concentration of Compound A of 40 mg/mL) was prepared and aliquots for weekly preparations were frozen at −20° C. On each preparation day, a stock solution aliquot was thawed and diluted with other vehicle components to the desired concentration. Formulated Compound A and vehicle were at room temperature for dosing.
The study began when the older animals were 11 weeks old, and concluded when the older animals were 19 weeks old. Body weight was recorded once a week, with the exception of two weight measurements taken the first week of the study (when the older animals were 11 weeks old). Proteinuria was measured in the urine of animals with urine dipsticks once a week, starting when the older animals were 10 weeks old. […] Blood samples were taken retro-orbitally at the start of the study to establish a baseline (15 animals, 3 per group), and when the older animals were 16 weeks (all animals) and when animals were 19 weeks (all animals) at the conclusion of the study. Blood urea nitrogen (BUN) was measured in all animals at study termination in blood samples. After blood collection, animals were euthanized, perfused with PBS, and the left kidneys were collected and weighed and fixed in 10% buffered formalin. Left kidneys were then processed to a formalin-fixed, paraffin-embedded (FFPE) block, and histology was analyzed in Periodic Acid-Schiff-stained sections (1 section per slide), using the criteria described in Alperovich et al., Lupus, 16:18-24 (2007). Right kidneys were weighed and snap-frozen at −80° C. Spleens were also collected and weighed. SLE in animals treated with a BET inhibitor and vehicle.
Anti-dsDNA antibody test measures the amount of antibody to double-stranded deoxyribonucleic acid (anti-dsDNA) that may be present in the blood. Anti-dsDNA antibodies are highly specific markers of SLE as these antibodies are not thought to be present in other kinds of autoimmune disorder.

## Cn1cc(-c2ccccc2)c(-c2cn(C)c(=O)c3[nH]c(-c4cnn(C(F)(F)F)c4)cc23)cc1=O [Compound A, 6-methyl-4-(1-methyl-2-oxo-5-phenyl-1,2-dihydropyridin-4-yl)-2-(1-(trifluoromethyl)-1H-pyrazol-4-yl)-1,6-dihydro-7H-pyrrolo[2,3-c]pyridin-7-one]
[1]; Bleo + Compound A (1 mg/kg) OG QOD from D7, Day 1
  Mean Body Weight Change: 1.269
[1]; Bleo + Compound A (1 mg/kg) OG QOD from D7, Day 2
  Mean Body Weight Change: −0.061
[1]; Bleo + Compound A (1 mg/kg) OG QOD from D7, Day 3
  Mean Body Weight Change: −0.538
[1]; Bleo + Compound A (1 mg/kg) OG QOD from D7, Day 4
  Mean Body Weight Change: −4.382
[1]; Bleo + Compound A (1 mg/kg) OG QOD from D7, Day 5
  Mean Body Weight Change: −8.986
[1]; Bleo + Compound A (1 mg/kg) OG QOD from D7, Day 6
  Mean Body Weight Change: −11.204
[1]; Bleo + Compound A (1 mg/kg) OG QOD from D7, Day 7
  Mean Body Weight Change: −14.465
[1]; Bleo + Compound A (1 mg/kg) OG QOD from D7, Day 8
  Mean Body Weight Change: −18.012
[1]; Bleo + Compound A (1 mg/kg) OG QOD from D7, Day 9
  Mean Body Weight Change: −17.310
[1]; Bleo + Compound A (1 mg/kg) OG QOD from D7, Day 10
  Mean Body Weight Change: −17.947
[1]; Bleo + Compound A (1 mg/kg) OG QOD from D7, Day 11
  Mean Body Weight Change: −16.922
[1]; Bleo + Compound A (1 mg/kg) OG QOD from D7, Day 12
  Mean Body Weight Change: −17.204
[1]; Bleo + Compound A (1 mg/kg) OG QOD from D7, Day 13
  Mean Body Weight Change: −16.710
[1]; Bleo + Compound A (1 mg/kg) OG QOD from D7, Day 14
  Mean Body Weight Change: −16.996
[1]; Bleo + Compound A (1 mg/kg) OG QOD from D7, Day 15
  Mean Body Weight Change: −16.840
[1]; Bleo + Compound A (1 mg/kg) OG QOD from D7, Day 16
  Mean Body Weight Change: 16.698
[1]; Bleo + Compound A (1 mg/kg) OG QOD from D7, Day 17
  Mean Body Weight Change: −16.509
[1]; Bleo + Compound A (1 mg/kg) OG QOD from D7, Day 18
  Mean Body Weight Change: −16.113
[1]; Bleo + Compound A (1 mg/kg) OG QOD from D7, Day 19
  Mean Body Weight Change: −16.612
[1]; Bleo + Compound A (1 mg/kg) OG QOD from D7, Day 20
  Mean Body Weight Change: −16.506
[1]; Bleo + Compound A (1 mg/kg) OG QOD from D7, Day 21
  Mean Body Weight Change: −16.978
[1]; Bleo + Compound A (3 mg/kg) OG QOD from D7, Day 1
  Mean Body Weight Change: 0.712
[1]; Bleo + Compound A (3 mg/kg) OG QOD from D7, Day 2
  Mean Body Weight Change: −0.088
[1]; Bleo + Compound A (3 mg/kg) OG QOD from D7, Day 3
  Mean Body Weight Change: −1.018
[1]; Bleo + Compound A (3 mg/kg) OG QOD from D7, Day 4
  Mean Body Weight Change: −5.198
[1]; Bleo + Compound A (3 mg/kg) OG QOD from D7, Day 5
  Mean Body Weight Change: −8.915
[1]; Bleo + Compound A (3 mg/kg) OG QOD from D7, Day 6
  Mean Body Weight Change: −11.426
[1]; Bleo + Compound A (3 mg/kg) OG QOD from D7, Day 7
  Mean Body Weight Change: −14.024
[1]; Bleo + Compound A (3 mg/kg) OG QOD from D7, Day 8
  Mean Body Weight Change: −18.310
[1]; Bleo + Compound A (3 mg/kg) OG QOD from D7, Day 9
  Mean Body Weight Change: 18.416
[1]; Bleo + Compound A (3 mg/kg) OG QOD from D7, Day 10
  Mean Body Weight Change: −19.029
[1]; Bleo + Compound A (3 mg/kg) OG QOD from D7, Day 11
  Mean Body Weight Change: −17.826
[1]; Bleo + Compound A (3 mg/kg) OG QOD from D7, Day 12
  Mean Body Weight Change: −18.384
[1]; Bleo + Compound A (3 mg/kg) OG QOD from D7, Day 13
  Mean Body Weight Change: −18.055
[1]; Bleo + Compound A (3 mg/kg) OG QOD from D7, Day 14
  Mean Body Weight Change: −18.840
[1]; Bleo + Compound A (3 mg/kg) OG QOD from D7, Day 15
  Mean Body Weight Change: −19.765
[1]; Bleo + Compound A (3 mg/kg) OG QOD from D7, Day 16
  Mean Body Weight Change: −19.797
[1]; Bleo + Compound A (3 mg/kg) OG QOD from D7, Day 17
  Mean Body Weight Change: −20.566
[1]; Bleo + Compound A (3 mg/kg) OG QOD from D7, Day 18
  Mean Body Weight Change: −21.350
[1]; Bleo + Compound A (3 mg/kg) OG QOD from D7, Day 19
  Mean Body Weight Change: −20.021
[1]; Bleo + Compound A (3 mg/kg) OG QOD from D7, Day 20
  Mean Body Weight Change: −22.069
[1]; Bleo + Compound A (3 mg/kg) OG QOD from D7, Day 21
  Mean Body Weight Change: −22.585
[1]; Bleo + Compound A (10 mg/kg) OG QOD from D7, Day 1
  Mean Body Weight Change: 1.987
[1]; Bleo + Compound A (10 mg/kg) OG QOD from D7, Day 2
  Mean Body Weight Change: 2.172
[1]; Bleo + Compound A (10 mg/kg) OG QOD from D7, Day 3
  Mean Body Weight Change: 0.974
[1]; Bleo + Compound A (10 mg/kg) OG QOD from D7, Day 4
  Mean Body Weight Change: 4.101
[1]; Bleo + Compound A (10 mg/kg) OG QOD from D7, Day 5
  Mean Body Weight Change: −8.131
[1]; Bleo + Compound A (10 mg/kg) OG QOD from D7, Day 6
  Mean Body Weight Change: −9.560
[1]; Bleo + Compound A (10 mg/kg) OG QOD from D7, Day 7
  Mean Body Weight Change: −11.173
[1]; Bleo + Compound A (10 mg/kg) OG QOD from D7, Day 8
  Mean Body Weight Change: −14.286
[1]; Bleo + Compound A (10 mg/kg) OG QOD from D7, Day 9
  Mean Body Weight Change: −15.876
[1]; Bleo + Compound A (10 mg/kg) OG QOD from D7, Day 10
  Mean Body Weight Change: −16.428
[1]; Bleo + Compound A (10 mg/kg) OG QOD from D7, Day 11
  Mean Body Weight Change: −14.809
[1]; Bleo + Compound A (10 mg/kg) OG QOD from D7, Day 12
  Mean Body Weight Change: −13.953
[1]; Bleo + Compound A (10 mg/kg) OG QOD from D7, Day 13
  Mean Body Weight Change: −15.394
[1]; Bleo + Compound A (10 mg/kg) OG QOD from D7, Day 14
  Mean Body Weight Change: −13.610
[1]; Bleo + Compound A (10 mg/kg) OG QOD from D7, Day 15
  Mean Body Weight Change: −15.280
[1]; Bleo + Compound A (10 mg/kg) OG QOD from D7, Day 16
  Mean Body Weight Change: −13.218
[1]; Bleo + Compound A (10 mg/kg) OG QOD from D7, Day 17
  Mean Body Weight Change: −13.174
[1]; Bleo + Compound A (10 mg/kg) OG QOD from D7, Day 18
  Mean Body Weight Change: −14.218
[1]; Bleo + Compound A (10 mg/kg) OG QOD from D7, Day 19
  Mean Body Weight Change: −15.010
[1]; Bleo + Compound A (10 mg/kg) OG QOD from D7, Day 20
  Mean Body Weight Change: −16.208
[1]; Bleo + Compound A (10 mg/kg) OG QOD from D7, Day 21
  Mean Body Weight Change: −16.139
[1]; Bleo mice, 10 mg/kg
  Ending body weight at Day 21: higher ending weight at Day 21
[1]; Bleo mice, all doses tested (1, 3, 10 mg/kg)
  Body weight course after start of administration: weight loss was arrested
[1]; Compound A (all doses tested), Pirfenidone (300 mg/kg)
  Body weight compared with Bleo+Saline treated animals: No significant difference
[1]; OG administration, IPF study
  Deaths / mortality: no deaths or significant changes in mortality
anti-dsDNA antibodies; Compound A 1 mg/kg PO QD, Week 16
  Anti-dsDNA Antibodies in serum, mean: 240 units/mL
anti-dsDNA antibodies; Compound A 1 mg/kg PO QD, Week 19
  Anti-dsDNA Antibodies in serum, mean: 149 units/mL
anti-dsDNA antibodies; Compound A 3 mg/kg PO QD, Week 16
  Anti-dsDNA Antibodies in serum, mean: 112 units/mL
anti-dsDNA antibodies; Compound A 3 mg/kg PO QD, Week 19
  Anti-dsDNA Antibodies in serum, mean: 94 units/mL
anti-dsDNA antibodies; Compound A 10 mg/kg PO QD, Week 16
  Anti-dsDNA Antibodies in serum, mean: 47 units/mL
anti-dsDNA antibodies; Compound A 10 mg/kg PO QD, Week 19
  Anti-dsDNA Antibodies in serum, mean: 57 units/mL
anti-dsDNA antibodies; Week 16, 1 mg/mL
  Anti-dsDNA antibodies in serum: did not appear to be effective
anti-dsDNA antibodies; Week 16 and Week 19, 3 mg/mL
  Anti-dsDNA antibodies in serum: positive effect in reducing levels
anti-dsDNA antibodies; Week 16 and Week 19, Compound A (10 mg/mL) and Cyclophosphamide
  Anti-dsDNA antibodies in serum versus Vehicle group: effective in reducing levels to well below that seen with the Vehicle administered group
anti-dsDNA antibodies; Week 19, 1 mg/mL
  Anti-dsDNA antibodies in serum: effective in reducing the levels
